Data from patent US4801596A, “Nitroxy amino propanols for treating heart and circulatory diseases” (Boehringer Mannheim GmbH, priority 1984, dated 1989).
Structures can show the parent of a compound that is named as a salt.

Legend:
rat livers = assay: denitration rate in re-perfused rat livers (nitrate-like action); details: rat liver re-perfused 4 min, equimolar 5×10^-5 M/l; freed NO2 determined in the perfusate; high values = fast denitration
β-receptor = assay: β-blocking effectiveness: inhibition of isoprenaline-induced increase of the frequency in rabbits; type: in vivo, rabbit; details: i.v., isoprenaline 1 mcg/kg i.v.

| Compound | Vrel (denitration rate in relation to isosorbide-5-mononitrate) (rat livers) | ID 50 fcor (dose causing 50% inhibition of the increase of the frequency through isoprenaline) (β-receptor) |
| --- | --- | --- |
| CC(C)(C)NCC(O)COc1ccc(NC(=O)CCCO[N+](=O)[O-])cc1 (centres unmarked) [Example 1, 1-[4-(3-Nitroxypropyl)-carbonylamino]-phenoxy-3-tert.-butylaminopropan-2-olhydrochloride] | 0.77 | 2 326 mcg/kg |
| CC(C)(C)NCC(O)COc1ccc(NC(=O)CCCO[N+](=O)[O-])cc1C#N (centres unmarked) [4 (a), 1-[2-cyano-4-(3-nitroxypropyl)-carbonylamino]-phenoxy-3-tert.-butylaminopropan-2-ol hydrochloride] | 0.74 | 180 µg/kg |
| CC(C)(C)NCC(O)COc1ccc(NC(=O)[C@H]2CC[C@H](O[N+](=O)[O-])CC2)cc1C#N (relative stereo) [4 (c), 1-[2-cyano-4-[[(t-4-nitroxy)-cyclohexyl]-r-1-carbonylamino]]-phenoxy-3-tert.-butylaminopropan-2-ol benzoate] | 1.95 | – |
| CC(C)(C)NCC(O)COc1ccc(NC(=O)C[C@@H]2CCCC[C@H]2O[N+](=O)[O-])cc1 (relative stereo) [2 (g), 1-[4-[[(t-2-nitroxy)-cyclohexyl]-r-1-methylcarbonylamino] ]-phenoxy-3-tert.-butylaminopropan-2-ol hydrochloride] | 0.97 | 4 158 mcg/kg |
| C#CC(C)(C)NCC(O)COc1ccc(CC(=O)N2CCC(CO[N+](=O)[O-])CC2)cc1 (centres unmarked) [9 (j), 3-(2-methyl-3-butyn-2-yl)-amino-1-[4-(4-nitroxymethyl-1-piperidino)-carbonylmethyl]-phenoxypropan-2-ol fumarate] | 1.94 | – |
| CC(CNC(=O)Cc1ccc(OCC(O)CNC(C)(C)C)cc1)O[N+](=O)[O-] (centres unmarked) [9 (a), 1-[4-[(2-nitroxypropyl)-amino]-carbonylmethyl]-phenoxy-3-tert.-butylaminopropan-2-ol hemifumarate] | 0.34 | 3 147 mcg/kg |
| CC(C)(C)NCC(O)COc1ccc(CC(=O)N[C@@H]2CCCC[C@H]2O[N+](=O)[O-])cc1 (relative stereo) [9 (d), trans-1-[4-[(2-nitroxycyclohexyl)-amino]-carbonylmethyl]-phenoxy-3-tert.-butylaminopropan-2-ol] | 1.06 | – |
| CC(C)(C)NCC(O)COc1ccc(CC(=O)N2CCC(O[N+](=O)[O-])CC2)cc1 (centres unmarked) [9 (f), 1-[4-(4-nitroxy-1-piperidino)-carbonylmethyl]-phenoxy-3-tert.-butylaminopropan-2-ol fumarate] | 1.23 | – |
| CC(C)(C)NCC(O)COc1ccc(CC(=O)N2CCCC(CO[N+](=O)[O-])C2)cc1 (centres unmarked) [9 (g), 1-[4-(3-nitroxymethyl-1-piperidino)-carbonylmethyl]-phenoxy-3-tert.-butylaminopropan-2-ol fumarate] | 1.69 | – |
| CC(C)(C)NCC(O)COc1ccc(CC(=O)NCCCO[N+](=O)[O-])cc1 (centres unmarked) [Example 8, 1-[4-[(3-Nitroxypropyl)-amino]-carbonylmethyl]-phenoxy-3-tert.-butylaminopropan-2-ol fumarate] | 0.48 | – |
| CC(C)(C)NCC(O)COc1ccc(NC(=O)C(C)(C)CO[N+](=O)[O-])cc1 (centres unmarked) [2 (b), 1-[4-(2-methyl-1-nitroxy-2-propyl)-carbonylamino]-phenoxy-3-tert.-butylaminopropan-2-ol hydrochloride] | 0.68 | 4 164 mcg/kg |
| CC(C)(C)NCC(O)COc1ccc(CC(=O)N2CCC(CO[N+](=O)[O-])CC2)cc1 (centres unmarked) [9 (h), 1-[4-(4-nitroxymethyl-1-piperidino)-carbonylmethyl]-phenoxy-3-tert.-butylaminopropan-2-ol fumarate] | 1.06 | 1 207 mcg/kg |
| O=[N+]([O-])O[C@@H]1CO[C@H]2[C@@H]1OC[C@@H]2O [Isosorbide-5-mononitrate, isosorbide-5-mononitrate, reference compound] | 0.86 | – |
| CN(CC(C)(C)CO[N+](=O)[O-])C(=O)Cc1ccc(OCC(O)CNC(C)(C)C)cc1 (centres unmarked) [9 (c), 1-[4-[[N--(2,2-dimethyl-3-nitroxypropyl)-N--methyl]-amino]-carbonylmethyl]-phenoxy-3-tert.-butylaminopropan-2-ol fumarate] | 1.63 | – |
| CCOC(=O)c1cc(NC(=O)CCCO[N+](=O)[O-])ccc1OCC(O)CNC(C)(C)C (centres unmarked) [Example 7, 1-[2-Ethoxycarbonyl-4-(3-nitroxypropyl)-carbonylamino]phenoxy-3-tert.-butylaminopropan-2-ol cyclamate] | 1.72 | 1 619 mcg/kg |
| CC(=O)c1cc(NC(=O)CCCO[N+](=O)[O-])ccc1OCC(O)CNC(C)(C)C (centres unmarked) [6 (a), 1-[2-methylcarbonyl-4-(3-nitroxypropyl)-carbonylamino]-phenoxy-3-tert.-butylaminopropan-2-ol fumarate] | 0.51 | 886 µg/kg |
| CC(=O)c1cc(NC(=O)[C@H]2CC[C@H](O[N+](=O)[O-])CC2)ccc1OCC(O)CNC(C)(C)C (relative stereo) [6 (c), 1-[2-methylcarbonyl-4-[[(t-4-nitroxy)-cyclohexyl]-r-1-carbonylamino]]-phenoxy-3-tert.-butylaminopropan-2-ol hydrochloride] | 1.34 | 2 273 mcg/kg |
| CC(C)(C)NCC(O)COc1ccc(NC(=O)CCCCO[N+](=O)[O-])cc1 (centres unmarked) [2 (a), 1-[4-(4-nitroxybutyl)-carbonylamino]-phenoxy-3-tert.-butylaminopropan-2-ol fumarate] | 0.65 | – |
| CC(C)(C)NCC(O)COc1ccc(NC(=O)[C@H]2CC[C@H](O[N+](=O)[O-])CC2)cc1 (relative stereo) [2 (e), 1-[4-[[(t-4-nitroxy)-cyclohexyl]-r-1-carbonylamino]]-phenoxy-3-tert.-butylaminopropan-2-ol hydrochloride] | 0.95 | 4 006 mcg/kg |
